The test system of the experiment is MV-4-11 cells. The experiment is described as follows: Gene expression microarray analysis (Affymetrix PrimeView) and GSEA. Type of experiment: cell-based, human. Also on record: RFU PODN (11730768_x_at) / Fold change /veh PODN (11730768_x_at) / RFU LINC00158 (11744669_a_at) / Fold change /veh LINC00158 (11744669_a_at) / RFU DUSP10 (11751237_a_at) / Fold change /veh DUSP10 (11751237_a_at) / RFU ID3 (11757404_x_at) / Fold change /veh ID3 (11757404_x_at) / RFU PLEKHG5 (11737974_s_at) / Fold change /veh PLEKHG5 (11737974_s_at) / RFU LRRC4B (11730491_at) / Fold change /veh LRRC4B (11730491_at) / RFU GIMAP4 (11747438_a_at) / Fold change /veh GIMAP4 (11747438_a_at) / RFU KRT8 (11758183_x_at) / Fold change /veh KRT8 (11758183_x_at) / RFU CNN1 (11734310_a_at) / Fold change /veh CNN1 (11734310_a_at) / RFU VPS37D (11726825_at) / Fold change /veh VPS37D (11726825_at) / RFU C10orf10 (11716522_x_at) / Fold change /veh C10orf10 (11716522_x_at) / RFU KIR2DL2 /// KIR2DL4 /// KIR2DL5A /// KIR2DL5B /// KIR2DS1 /// KIR2DS2 /// KIR2DS3 /// KIR2DS4 /// KIR3DL3 /// KIR3DL3 /// KIR3DS1 (11738374_at) / Fold change /veh KIR2DL2 /// KIR2DL4 /// KIR2DL5A /// KIR2DL5B /// KIR2DS1 /// KIR2DS2 /// KIR2DS3 /// KIR2DS4 /// KIR3DL3 /// KIR3DL3 /// KIR3DS1 (11738374_at) / RFU C1QL1 (11718748_at) / Fold change /veh C1QL1 (11718748_at) / RFU TMPRSS4 (11747572_a_at) / Fold change /veh TMPRSS4 (11747572_a_at) / RFU HAMP (11756126_x_at) / Fold change /veh HAMP (11756126_x_at) / RFU RNFT2 (11725882_a_at) / Fold change /veh RNFT2 (11725882_a_at) / RFU NR4A2 (11747474_a_at) / Fold change /veh NR4A2 (11747474_a_at) / RFU ABCC12 (11746883_a_at) / Fold change /veh ABCC12 (11746883_a_at) / RFU TMEM136 (11760407_x_at) / Fold change /veh TMEM136 (11760407_x_at) / RFU CLDN22 /// WWC2 (11732394_at) / Fold change /veh CLDN22 /// WWC2 (11732394_at) / RFU HLA-DPB1 (11760878_x_at) / Fold change /veh HLA-DPB1 (11760878_x_at) / RFU SPINT1 (11716480_a_at) / Fold change /veh SPINT1 (11716480_a_at) / RFU GAP43 (11754022_s_at) / Fold change /veh GAP43 (11754022_s_at) / RFU A4GNT (11735810_at) / Fold change /veh A4GNT (11735810_at) / RFU PRB3 (11715151_x_at) / Fold change /veh PRB3 (11715151_x_at) / RFU TUBB4B (11761932_at) / Fold change /veh TUBB4B (11761932_at) / RFU CAPN14 (11732068_a_at) / Fold change /veh CAPN14 (11732068_a_at) / RFU TMCC2 (11721928_a_at) / Fold change /veh TMCC2 (11721928_a_at) / RFU IRGQ (11745062_a_at) / Fold change /veh IRGQ (11745062_a_at) / RFU FAM174B (11720279_a_at) / Fold change /veh FAM174B (11720279_a_at) / RFU TMPRSS4 (11748680_a_at) / Fold change /veh TMPRSS4 (11748680_a_at) / RFU FAM212B (11763350_a_at) / Fold change /veh FAM212B (11763350_a_at) / RFU PLEKHG5 (11743358_a_at) / Fold change /veh PLEKHG5 (11743358_a_at) / RFU ZSCAN30 (11745921_a_at) / Fold change /veh ZSCAN30 (11745921_a_at) / RFU CMKLR1 (11741424_a_at) / Fold change /veh CMKLR1 (11741424_a_at) / RFU LOC101060620 /// MAPK8IP1 (11723275_at) / Fold change /veh LOC101060620 /// MAPK8IP1 (11723275_at) / RFU SPTSSB (11747773_x_at) / Fold change /veh SPTSSB (11747773_x_at) / RFU PRSS12 (11739890_at) / Fold change /veh PRSS12 (11739890_at) / RFU BIN1 (11741810_x_at) / Fold change /veh BIN1 (11741810_x_at) / RFU WNT11 (11732464_a_at) / Fold change /veh WNT11 (11732464_a_at) / RFU C10orf10 (11716521_a_at) / Fold change /veh C10orf10 (11716521_a_at) / RFU C5orf56 (11738089_at) / Fold change /veh C5orf56 (11738089_at) / RFU CYB561 (11721691_x_at) / Fold change /veh CYB561 (11721691_x_at) / RFU ANKRD19P (11752326_a_at) / Fold change /veh ANKRD19P (11752326_a_at) / RFU OR2T12 /// OR2T33 /// OR2T8 (11738714_s_at) / Fold change /veh OR2T12 /// OR2T33 /// OR2T8 (11738714_s_at) / RFU VCAN (11748164_a_at) / Fold change /veh VCAN (11748164_a_at) / RFU JSRP1 (11732532_at) / Fold change /veh JSRP1 (11732532_at) / RFU KRTAP10-11 (11738290_x_at) / Fold change /veh KRTAP10-11 (11738290_x_at) / RFU MYO3A (11730013_a_at) / Fold change /veh MYO3A (11730013_a_at) / RFU EBF3 (11725865_a_at) / Fold change /veh EBF3 (11725865_a_at) / RFU CAMK2N1 (11719241_x_at) / Fold change /veh CAMK2N1 (11719241_x_at) / RFU C5orf56 (11738088_a_at) / Fold change /veh C5orf56 (11738088_a_at) / RFU OLFML3 (11715873_a_at) / Fold change /veh OLFML3 (11715873_a_at) / RFU LOC100653217 /// NTM (11731650_a_at) / Fold change /veh LOC100653217 /// NTM (11731650_a_at) / RFU MAPK11 (11762145_a_at) / Fold change /veh MAPK11 (11762145_a_at) / RFU FIZ1 (11724087_x_at) / Fold change /veh FIZ1 (11724087_x_at) / RFU OASL (11726364_x_at) / Fold change /veh OASL (11726364_x_at) / RFU SOX15 (11748057_x_at) / Fold change /veh SOX15 (11748057_x_at) / RFU CD79A (11719716_a_at) / Fold change /veh CD79A (11719716_a_at) / RFU HIST1H1D (11736915_at) / Fold change /veh HIST1H1D (11736915_at) / RFU CASKIN2 (11723855_a_at) / Fold change /veh CASKIN2 (11723855_a_at) / RFU LOC730098 (11760151_x_at) / Fold change /veh LOC730098 (11760151_x_at) / RFU OR4N2 (11742367_at) / Fold change /veh OR4N2 (11742367_at) / RFU PRRT2 (11749266_a_at) / Fold change /veh PRRT2 (11749266_a_at) / RFU SNX32 (11753110_a_at) / Fold change /veh SNX32 (11753110_a_at) / RFU CDHR5 (11726645_a_at) / Fold change /veh CDHR5 (11726645_a_at) / RFU RCAN1 (11760418_a_at) / Fold change /veh RCAN1 (11760418_a_at) / RFU FAM167A (11723789_a_at) / Fold change /veh FAM167A (11723789_a_at) / RFU FAM26E (11764081_at) / Fold change /veh FAM26E (11764081_at) / RFU ISYNA1 (11749810_s_at) / Fold change /veh ISYNA1 (11749810_s_at) / RFU ACY1 (11761880_at) / Fold change /veh ACY1 (11761880_at) / RFU 11764098_at / Fold change /veh 11764098_at / RFU SAMD14 (11745864_x_at) / Fold change /veh SAMD14 (11745864_x_at) / RFU NPB (11741838_a_at) / Fold change /veh NPB (11741838_a_at) / RFU TMPRSS6 (11731388_a_at) / Fold change /veh TMPRSS6 (11731388_a_at) / RFU KRTAP10-2 (11738614_at) / Fold change /veh KRTAP10-2 (11738614_at) / RFU ARHGAP8 /// PRR5-ARHGAP8 (11727945_x_at) / Fold change /veh ARHGAP8 /// PRR5-ARHGAP8 (11727945_x_at) / RFU KRTAP5-7 /// NADSYN1 (11734609_at) / Fold change /veh KRTAP5-7 /// NADSYN1 (11734609_at) / RFU RASL12 (11751679_a_at) / Fold change /veh RASL12 (11751679_a_at) / RFU CDKN2B (11736163_a_at) / Fold change /veh CDKN2B (11736163_a_at) / RFU PRF1 (11729649_at) / Fold change /veh PRF1 (11729649_at) / RFU, ZNF638 /// ZNF638-IT1 / Fold change vs veh, ZNF638 /// ZNF638-IT1 / RFU, PANK3 / Fold change vs veh, PANK3 / RFU, SH3YL1 / Fold change vs veh, SH3YL1 / RFU, ZEB2 / Fold change vs veh, ZEB2 / RFU, NRIP1 / Fold change vs veh, NRIP1 / RFU, PTTG1IP / Fold change vs veh, PTTG1IP / RFU, CAPN2 / Fold change vs veh, CAPN2 / RFU, MED14 / Fold change vs veh, MED14 / RFU, SNORA58 / Fold change vs veh, SNORA58 / RFU, C1orf63 / Fold change vs veh, C1orf63 / RFU, LRRFIP1 / Fold change vs veh, LRRFIP1 / RFU, NDUFAF7 / Fold change vs veh, NDUFAF7 / RFU, SLC12A2 / Fold change vs veh, SLC12A2 / RFU, IBTK / Fold change vs veh, IBTK / RFU, ESF1 / Fold change vs veh, ESF1 / Fold change vs veh, TMEM50B / RFU, TAOK1 / Fold change vs veh, TAOK1 / RFU, ACBD3 / Fold change vs veh, ACBD3 / RFU, TMA16 / Fold change vs veh, TMA16 / RFU, RWDD3 / Fold change vs veh, RWDD3 / RFU, BCAT1 / Fold change vs veh, BCAT1 / RFU, EDEM3 / Fold change vs veh, EDEM3 / RFU, TMEM33 / Fold change vs veh, TMEM33 / RFU, WDR75 / Fold change vs veh, WDR75 / RFU, AHCTF1 / Fold change vs veh, AHCTF1 / RFU, TFRC / Fold change vs veh, TFRC / RFU, ZDHHC17 / Fold change vs veh, ZDHHC17 / RFU, NOM1 / Fold change vs veh, NOM1 / RFU, ARL8B / Fold change vs veh, ARL8B / RFU, ZBTB11 / Fold change vs veh, ZBTB11 / RFU, TAMM41 / Fold change vs veh, TAMM41 / RFU, KIAA1704 /// LOC100996395 / Fold change vs veh, KIAA1704 /// LOC100996395 / RFU, ING1 / Fold change vs veh, ING1 / RFU, TRMT61B / Fold change vs veh, TRMT61B / RFU, FUBP3 / Fold change vs veh, FUBP3 / RFU, TP53 / Fold change vs veh, TP53 / RFU, TNKS2 / Fold change vs veh, TNKS2 / RFU, ZFP14 / Fold change vs veh, ZFP14 / RFU, ACTR2 / Fold change vs veh, ACTR2 / RFU, PPP3R1 / Fold change vs veh, PPP3R1 / RFU, PIK3R1 / Fold change vs veh, PIK3R1 / RFU, HNRNPA1 / Fold change vs veh, HNRNPA1 / RFU, RNF170 / Fold change vs veh, RNF170 / RFU, ZNF28 / Fold change vs veh, ZNF28 / RFU, RNGTT / Fold change vs veh, RNGTT / RFU, OGT / Fold change vs veh, OGT / RFU, BRD1 / Fold change vs veh, BRD1 / RFU, MARS / Fold change vs veh, MARS / RFU, ZNF655 / Fold change vs veh, ZNF655 / RFU, FAHD1 / Fold change vs veh, FAHD1 / RFU, BDP1 / Fold change vs veh, BDP1 / RFU, LRRCC1 / Fold change vs veh, LRRCC1 / RFU, ARID1A / Fold change vs veh, ARID1A / RFU, ZNF146 / Fold change vs veh, ZNF146 / RFU, ZNF330 / Fold change vs veh, ZNF330 / RFU, GPN3 / Fold change vs veh, GPN3 / RFU, C9orf123 / Fold change vs veh, C9orf123 / RFU, N4BP2L2 / Fold change vs veh, N4BP2L2 / RFU, ARFIP1 / Fold change vs veh, ARFIP1 / RFU, FAM179B / Fold change vs veh, FAM179B / RFU, BCL10 / Fold change vs veh, BCL10 / RFU, UHRF1BP1L / Fold change vs veh, UHRF1BP1L / RFU, BET1 / Fold change vs veh, BET1 / RFU, CNOT2 / Fold change vs veh, CNOT2 / RFU, ZNF268 / Fold change vs veh, ZNF268 / Fold change vs veh, ZNF507 / RFU, DGCR2 / Fold change vs veh, DGCR2 / RFU, WDSUB1 / Fold change vs veh, WDSUB1 / Fold change vs veh, HSP90B1 /// MIR3652 / RFU, ADSS / Fold change vs veh, ADSS / RFU, GK / Fold change vs veh, GK / RFU, ZNF148 / Fold change vs veh, ZNF148 / RFU, TAF9 / Fold change vs veh, TAF9 / RFU, SLC1A5 / Fold change vs veh, SLC1A5 / RFU, SLMO2 / Fold change vs veh, SLMO2 / RFU, ABCC4 / Fold change vs veh, ABCC4 / RFU, LOC101060439 /// RAP1B / Fold change vs veh, LOC101060439 /// RAP1B / RFU, RFX7 / Fold change vs veh, RFX7 / RFU, GTPBP10 / Fold change vs veh, GTPBP10 / RFU, CNEP1R1 / Fold change vs veh, CNEP1R1 / RFU, BIVM-ERCC5 /// ERCC5 / Fold change vs veh, BIVM-ERCC5 /// ERCC5 / RFU, ILF3 / Fold change vs veh, ILF3 / RFU 11762660_at / Fold change /veh 11762660_at / RFU VCAN (11757783_s_at) / Fold change /veh VCAN (11757783_s_at) / RFU DDX43 (11728927_at) / Fold change /veh DDX43 (11728927_at) / RFU KRT8 (11758188_x_at) / Fold change /veh KRT8 (11758188_x_at) / RFU NKD1 (11759106_at) / Fold change /veh NKD1 (11759106_at) / RFU SRD5A1 (11742802_a_at) / Fold change /veh SRD5A1 (11742802_a_at) / RFU TPSAB1 /// TPSB2 (11721975_s_at) / Fold change /veh TPSAB1 /// TPSB2 (11721975_s_at) / RFU GSTM3 (11746129_a_at) / Fold change /veh GSTM3 (11746129_a_at) / RFU IL23R (11737362_x_at) / Fold change /veh IL23R (11737362_x_at) / RFU TMEM51 (11727254_a_at) / Fold change /veh TMEM51 (11727254_a_at) / RFU PIWIL2 (11732686_x_at) / Fold change /veh PIWIL2 (11732686_x_at) / RFU ORM1 (11744905_x_at) / Fold change /veh ORM1 (11744905_x_at) / RFU CCDC152 (11743942_at) / Fold change /veh CCDC152 (11743942_at) / RFU ECM1 (11717891_a_at) / Fold change /veh ECM1 (11717891_a_at) / RFU IL23R (11748794_a_at) / Fold change /veh IL23R (11748794_a_at) / RFU TNFAIP8L3 (11732012_x_at) / Fold change /veh TNFAIP8L3 (11732012_x_at) / RFU MBOAT4 (11741988_at) / Fold change /veh MBOAT4 (11741988_at) / RFU 11764193_at / Fold change /veh 11764193_at / RFU TMEM53 (11763286_at) / Fold change /veh TMEM53 (11763286_at) / RFU MAGEB2 (11727129_at) / Fold change /veh MAGEB2 (11727129_at) / RFU TMEM200A (11744735_a_at) / Fold change /veh TMEM200A (11744735_a_at) / RFU CCDC152 (11751479_a_at) / Fold change /veh CCDC152 (11751479_a_at) / RFU FAM211A (11726209_a_at) / Fold change /veh FAM211A (11726209_a_at) / RFU RGS16 (11746705_a_at) / Fold change /veh RGS16 (11746705_a_at) / RFU VCAN (11755009_s_at) / Fold change /veh VCAN (11755009_s_at) / RFU RHOB (11743442_s_at) / Fold change /veh RHOB (11743442_s_at) / RFU RGS16 (11720943_a_at) / Fold change /veh RGS16 (11720943_a_at) / RFU RGS16 (11720944_at) / Fold change /veh RGS16 (11720944_at) / RFU, VPS4B / Fold change vs veh, VPS4B / RFU, CREB1 / Fold change vs veh, CREB1 / RFU, DNAJC13 / Fold change vs veh, DNAJC13 / RFU, GNAQ / Fold change vs veh, GNAQ / RFU, CDK5R1 / Fold change vs veh, CDK5R1 / RFU, ZRANB3 / Fold change vs veh, ZRANB3 / RFU, CUL4A / Fold change vs veh, CUL4A / RFU, CCNY / Fold change vs veh, CCNY / RFU, UFL1 / Fold change vs veh, UFL1 / RFU, COG3 / Fold change vs veh, COG3 / RFU, DIAPH2 / Fold change vs veh, DIAPH2 / RFU, SKA2 / Fold change vs veh, SKA2 / RFU, AFF3 / Fold change vs veh, AFF3 / RFU, LMF1 / Fold change vs veh, LMF1 / RFU, IPO11 / Fold change vs veh, IPO11 / RFU, DFFB / Fold change vs veh, DFFB / RFU, FOXP1 / Fold change vs veh, FOXP1 / RFU, CARD8 / Fold change vs veh, CARD8 / RFU, STRN3 / Fold change vs veh, STRN3 / RFU, ADK / Fold change vs veh, ADK / RFU, RASSF2 / Fold change vs veh, RASSF2 / RFU, WIPF1 / Fold change vs veh, WIPF1 / RFU, LARP1B / Fold change vs veh, LARP1B / RFU, RASA1 / Fold change vs veh, RASA1 / RFU, RB1 / Fold change vs veh, RB1 / RFU, PPFIA1 / Fold change vs veh, PPFIA1 / RFU, MAT2A / Fold change vs veh, MAT2A / RFU, CCT5 / Fold change vs veh, CCT5 / RFU, WDR92 / Fold change vs veh, WDR92 / RFU, CUX1 / Fold change vs veh, CUX1 / RFU, TTC7A / Fold change vs veh, TTC7A / RFU, TMEM135 / Fold change vs veh, TMEM135 / RFU, DEPTOR / Fold change vs veh, DEPTOR / RFU, CPM / Fold change vs veh, CPM / RFU, DNAJB6 / Fold change vs veh, DNAJB6 / RFU, CACNA2D3 / Fold change vs veh, CACNA2D3 / RFU, DTX4 / Fold change vs veh, DTX4 / RFU, TFCP2 / Fold change vs veh, TFCP2 / RFU, GMCL1 /// GMCL1P1 / Fold change vs veh, GMCL1 /// GMCL1P1 / RFU, AEBP2 / Fold change vs veh, AEBP2 / RFU, SNHG1 /// SNORD22 /// SNORD25 /// SNORD26 /// SNORD27 /// SNORD28 /// SNORD29 /// SNORD31 / Fold change vs veh, SNHG1 /// SNORD22 /// SNORD25 /// SNORD26 /// SNORD27 /// SNORD28 /// SNORD29 /// SNORD31 / Fold change (Aza/veh), C12orf56 (ProbeSet 11735607_a_at) / Fold change (ACY-1035/veh), C12orf56 (ProbeSet 11735607_a_at) / Fold change (Aza/veh), FGFR1OP (ProbeSet 11751329_s_at) / Fold change (ACY-1035/veh), FGFR1OP (ProbeSet 11751329_s_at) / Fold change (Aza/veh), VPS36 (ProbeSet 11739960_a_at) / Fold change (ACY-1035/veh), VPS36 (ProbeSet 11739960_a_at) / RFU SYPL1 (11715823_x_at) / Fold change /veh SYPL1 (11715823_x_at) / RFU IGFBP7 (11715501_s_at) / Fold change /veh IGFBP7 (11715501_s_at) / RFU REEP3 (11722064_at) / Fold change /veh REEP3 (11722064_at) / RFU IGLL1 (11728026_x_at) / Fold change /veh IGLL1 (11728026_x_at): dose or concentration left out as unconfirmed. Particulars: ProbeSet 11725901_x_at; LIST B.

The values that follow come from paper PMC5218480 (PLoS ONE, 2017).

`Nc1ncn([C@@H]2O[C@H](CO)[C@@H](O)[C@H]2O)c(=O)n1` [azacitidine]: the “RFU, RWDD3” value worked out at 20.92 RFU.
